SMILES strings stand for the structures.

Usually inhibition in vivo stands for the relative decrease from the control value, in per cent.

Test [1] relates to sebum. Nature of the test: Testing and evaluation of the antiseborrhoeic effect: percentage sebum reduction from browning of the backs of male rats. In kind it is in vivo. Conditions: Rattus norvegicus, 336 h, topical, male Wistar rats, 9 applications in 2 weeks; for inhibition in vivo at 0.05 % strength: Concentration 0.05 % by weight; for inhibition in vivo at 0.01 % strength: Concentration 0.01 % by weight; for inhibition in vivo at 0.02 % strength: Concentration 0.02 % by weight; for inhibition in vivo at 0.5 % strength: Concentration 0.5 % by weight; for inhibition in vivo at 0.1 % strength: Concentration 0.1 % by weight; for inhibition in vivo at 0.001 % strength: Concentration 0.001 % by weight; for inhibition in vivo at 0.005 % strength: Concentration 0.005 % by weight. The text has this: The test is based on the observation that male rats secrete a brownish sebum so that the degree of greasiness of the skin may readily be visually assessed as browning of the skin. […] At the same time, only very small quantities of lipids can be extracted from the hair cut off; cf. J Soc. Cosmet. Chem. 34, 127-135 (1983)).
Male Wistar rats having a body mass of 220 to 230 grams at the beginning of the test were used as the test animals. The test substances, dissolved in a mixtures of equal volumes of ethanol and acetone, were brushed onto half of the back of each of 6 rats for each substance and concentration tested. The other half of the back of each tested rat was treated with the solvent only. One application was made on each tested rat on each of Monday through Friday of one week and on each of Monday through Thursday in the next week; the rats were then evaluated on Friday of the second week. For evaluation, the rats were shaved on their backs and flanks and visually assessed independently by a panel of examiners (6 people) under double-blind conditions. The degree of browning on the backs of the rats was visually assessed as a measure of the sebum coating. A group of six rats of the same type treated on both sides with the solvent only was used for control.
The intensities of the brown color on each control rat, and on the side of each other tested rat that had been treated with a solution containing a substance to be tested for its sebosuppressive ability, were scored according to the following scale:
The sum of the scores for the six treated rats in each group was divided by the sum of the scores for the six control rats for that group, this quotient was multiplied by 100, and that result subtracted from 100, to give the percentage sebum reduction as recorded in the tables below.

In test [2] the test system is sebum. The note with it: male rats systematically treated; cited from earlier work.

With `CC(C)=CCCC(C)=CCCC(C)=CCOc1ccc(CCC(=O)O)cc1` [Example 1.13, 3-(4-farnesyloxyphenyl)-propionic acid], the inhibition in vivo at 0.05 % strength in test [1] stood at 68%.

Regarding `CC(C)=CCCC(C)=CCCC(C)=CCOc1ccc(C(=O)O)cc1` [Example 1.16, 4-farnesyloxybenzoic acid], the inhibition in vivo at 0.01 % strength in test [1] is 69%. Regarding `COC(=O)c1ccc(OCCCC2CCCCC2)cc1` [Example 1.3, 4-(3-cyclohexylpropyloxy)-benzoic acid methyl ester], in test [1], the inhibition in vivo at 0.02 % strength amounted to 0%, the inhibition in vivo at 0.05 % strength worked out at 68% and the inhibition in vivo at 0.5 % strength turned out to be 99%.

As for `COC(=O)c1ccc(OC/C=C(\C)CCC=C(C)C)cc1` [Example 1.9, 4-geranyloxybenzoic acid methyl ester], the inhibition in vivo at 0.1 % strength in test [1] is 40%. In test [1], `COC(=O)c1ccc(OC(C)CCC2C(C)CCCC2(C)C)cc1` (stereo not shown) [Example 1.1, 4-[4-(1,1,3-trimethyl-2-cyclohexyl)-2-butoxy]-benzoic acid methyl ester] displayed an inhibition in vivo at 0.01 % strength of 25% and an inhibition in vivo at 0.05 % strength of 99%. As to `COC(=O)C=Cc1ccc(OCC=C(C)CCC=C(C)CCC=C(C)C)cc1` [Example 1.12, 4-farnesyloxycinnamic acid methyl ester], the inhibition in vivo at 0.05 % strength in test [1] is 85%. As to `COC(=O)c1ccc(OCC=C(C)CCC=C(C)CCC=C(C)C)cc1` [Example 1.8, 4-farnesyloxybenzoic acid methyl ester], in test [1], the inhibition in vivo at 0.01 % strength turned out to be 38% and the inhibition in vivo at 0.05 % strength came out at 86%.

`COC(=O)C=Cc1ccc(OCC2CCCCC2)cc1` [Example 1.2, 4-cyclohexylmethoxycinnamic acid methyl ester]: in test [1], the inhibition in vivo at 0.5 % strength amounted to 29%. In the case of `CC(CCC1C(C)CCCC1(C)C)Oc1ccc(C(=O)O)cc1` (stereo not shown) [Example 1.4, 4-(4-(1,3,3-trimethyl-2-cyclohexyl)-2-butoxy)-benzoic acid], in test [1], the inhibition in vivo at 0.001 % strength was determined as 73%, the inhibition in vivo at 0.005 % strength was determined as 88%, the inhibition in vivo at 0.01 % strength amounted to 93% and the inhibition in vivo at 0.05 % strength is 100%. As to `COC(=O)CCc1ccc(OCC=C(C)CCC=C(C)CCC=C(C)C)cc1` [Example 1.11, 3-(4-farnesyloxyphenyl)-propionic acid methyl ester], the inhibition in vivo at 0.05 % strength in test [1] amounted to 86%. On the same count and under the same terms, under `CC(C)=CCCC(C)=CCCC(C)=CCOc1ccc(C=CC(=O)O)cc1` [Example 1.14, 4-farnesyloxycinnamic acid] stands 73%.

For the compound `CC#C[C@]1(O)CC[C@H]2[C@@H]3CCc4cc(O)ccc4[C@H]3CC[C@@]21C` [estrogen], the “skin colour after shearing (browning by sebum)” value in test [2] is listed as “only show the normal light, pink-colored skin after shearing”. As to `CC(C)=CCCC(C)=CCCC(C)=CCOc1ccc(CO)cc1` [Example 1.17, 4-farnesyloxybenzyl alcohol], in test [1], the inhibition in vivo at 0.001 % strength came to 14%, the inhibition in vivo at 0.005 % strength came out at 72%, the inhibition in vivo at 0.01 % strength is 87% and the inhibition in vivo at 0.05 % strength stood at 86%. Moreover, the inhibition in vivo at 0.002 % strength in test [1] (Concentration 0.002 % by weight) was 18%.

With `O=C(O)C=Cc1ccc(OCC2CCCCC2)cc1` [Example 1.5, 4-(cyclohexylmethoxy)-cinnamic acid], the inhibition in vivo at 0.5 % strength in test [1] was determined as 15%. For the compound `C/C(=C\COc1ccc(C(=O)O)cc1)CCC[C@H](C)CCC[C@H](C)CCCC(C)C` [Example 1.15, 4-phytyloxybenzoic acid], in test [1], the inhibition in vivo at 0.05 % strength was found to be 35%. In the case of `O=C(O)c1ccc(OCCCC2CCCCC2)cc1` [Example 1.6, 4-(3-cyclohexylpropyloxy)-benzoic acid], in test [1], the inhibition in vivo at 0.005 % strength is 0%, the inhibition in vivo at 0.01 % strength stood at 52% and the inhibition in vivo at 0.02 % strength was determined as 84%. As for `OCC=Cc1ccc(OCC2CCCCC2)cc1` [Example 1.7, 4-cyclohexylmethoxycinnamic alcohol], in test [1], the inhibition in vivo at 0.1 % strength is 53% and the inhibition in vivo at 0.5 % strength was 66%.
